Reference: ChEMBL document CHEMBL1144775, “Secondary metabolites from three Florida sponges with antidepressant activity” (J Nat Prod, 2008)
The source made the active and inactive calls. No cut-off for these calls is given here.

Experiments:
Mus musculus [1] = assay: Antidepressant like activity in ip dosed Swiss Webster mouse assessed as reduction of immobility time by forced-swim test; type: functional, organism-based
Mus musculus [2] = species on record: Mus musculus; assay: Sedative effect in Swiss Webster mouse assessed as locomotor activity; type: organism-based; details: in vivo
Mus musculus [3] = assay: Antidepressant like activity in Swiss Webster mouse assessed as reduction of immobility time at 20 mg/kg, ip after 30 mins by forced-swim test; type: functional, organism-based; parameters: dose 20 mg/kg
Gallus gallus [4] = assay: Antidepressant activity in Cockerels assessed as attenuation separation distress vocalization rate in final 30 mins of depression phase at 30 mg/kg, ip; type: functional, organism-based; parameters: dose 30 mg/kg
Gallus gallus [5] = assay: Anxiolytic activity in Cockerels assessed as attenuation separation distress vocalization rate during first 5 mins in anxiety phase at 30 mg/kg, ip; type: functional, organism-based; parameters: dose 30 mg/kg

| Compound | Activity (Mus musculus [1]) | Activity (Mus musculus [2]) | Activity (Mus musculus [3]) | Activity (Gallus gallus [4]) | Activity (Gallus gallus [5]) |
| --- | --- | --- | --- | --- | --- |
| CN(C)CCc1c[nH]c2ccc(Br)cc12 | inactive | Active | – | – | – |
| CN1C(=N)N(C)/C(=C/c2c[nH]c3ccccc23)C1=O | inactive | – | – | – | – |
| C=C1CCC[C@H]2[C@](C)(CC3=C(O)C(=O)C=C(OC)C3=O)[C@@H](C)CC[C@]12C | inactive | – | – | – | – |
| CN(C)CCc1c[nH]c2cc(Br)c(Br)cc12 | – | – | Active | Active | Active |
